Source: patent US20220348558A1, “INHIBITORS OF ENCEPHALITIC ALPHAVIRUSES” (priority 2019, published 2022)

Key:
[1] = test system: VEEV TC83; test: microbe, parasite or virus in culture; format: cell-based; conditions: Venezuelan equine encephalitis virus, Vero 76, 48 h, read-out: VEEV TC83 EC50 nM
[2] = test system: WEEV California; test: microbe, parasite or virus in culture; format: cell-based; conditions: Western equine encephalitis virus, Vero 76, 48 h, read-out: WEEV California EC50 nM

Row | Compound | EC50 [1] | EC50 [2]
1 | COc1ccc(-n2c([C@@H]3CCCN3)nc3ccc(C#N)cc3c2=O)cc1 [Example 15, (S)-3-(4-methoxyphenyl)-4-oxo-2-(pyrrolidin-2-yl)-3,4-dihydroquinazoline-6-carbonitrile] | 51 to 150 nM | 501 to 1000 nM
2 | COc1ccc(-n2c([C@H]3CCCN3C)nc3c(-c4cn(C)cn4)cc(C#N)cc3c2=O)cc1F [Example 98, (R)-3-(3-fluoro-4-methoxyphenyl)-8-(1-methyl-1H-imidazol-4-yl)-2-(1-methylpyrrolidin-2-yl)-4-oxo-3,4-dihydroquinazoline-6-carbonitrile] | 1 to 50 nM | 1 to 50 nM
3 | O=c1c2cc([N+](=O)[O-])ccc2nc(C2CCCN2)n1-c1cccc(F)c1 (stereo not drawn) [Example 40, 3-(3-fluorophenyl)-6-nitro-2-(pyrrolidin-2-yl)quinazolin-4 (3H)-one] | 1 to 50 nM | 501 to 1000 nM
4 | COc1ccc(-n2c(C3CCCN3)nc3c(-c4ccc(S(C)(=O)=O)cc4)cc(C#N)cc3c2=O)cc1F (stereo not drawn) [Example 136, 3-(3-fluoro-4-methoxyphenyl)-8-(4-(methylsulfonyl)phenyl)-4-oxo-2-(pyrrolidin-2-yl)-3,4-dihydroquinazoline-6-carbonitrile] | 1 to 50 nM | 1 to 50 nM
5 | COc1ccc(-n2c(C3CCCN3)nc3c(-c4ccc(O)nc4)cc(C#N)cc3c2=O)cc1F (stereo not drawn) [Example 131, 3-(3-fluoro-4-methoxyphenyl)-8-(6-hydroxypyridin-3-yl)-4-oxo-2-(pyrrolidin-2-yl)-3,4-dihydroquinazoline-6-carbonitrile] | 1 to 50 nM | 1 to 50 nM
6 | O=c1c2cc([N+](=O)[O-])ccc2nc([C@H]2CCCN2)n1-c1ccccc1 [Example 2, (R)-6-nitro-3-phenyl-2-(pyrrolidin-2-yl) quinazolin-4 (3H)-one] | 1 to 50 nM | 51 to 150 nM
7 | COc1ccc(-n2c(C3CCCN3C3CCOCC3)nc3ccc(F)c(F)c3c2=O)cc1 (stereo in doubt) [Example 29, (S)-5,6-difluoro-3-(4-methoxyphenyl)-2-(1-(tetrahydro-2H-pyran-4-yl)pyrrolidin-2-yl) quinazolin-4 (3H)-one] | > 1000 nM | > 1000 nM
8 | COc1ccc(-n2c(C3CCCN3)nc3c(Cc4ccc(C)nc4)cc(C#N)cc3c2=O)cc1F (stereo not drawn) [Example 187, 3-(3-fluoro-4-methoxyphenyl)-8-((6-methylpyridin-3-yl)methyl)-4-oxo-2-(pyrrolidin-2-yl)-3,4-dihydroquinazoline-6-carbonitrile] | 51 to 150 nM | 151 to 500 nM
9 | Cc1ccccc1-n1c([C@H]2CCCN2)nc2ccc([N+](=O)[O-])cc2c1=O [Example 35, (R)-6-nitro-2-(pyrrolidin-2-yl)-3-(o-tolyl)quinazolin-4 (3H)-one] | > 1000 nM | > 1000 nM
10 | COc1ccc(-n2c([C@H]3CCCN3)nc3c(-c4ccncc4)cc(C#N)cc3c2=O)cc1F [Example 109, (R)-3-(3-fluoro-4-methoxyphenyl)-4-oxo-8-(pyridin-4-yl)-2-(pyrrolidin-2-yl)-3,4-dihydroquinazoline-6-carbonitrile] | 1 to 50 nM | 1 to 50 nM
11 | COc1ccc(-n2c(-c3nccn3C)nc3c(-c4ccc(C)nc4)cc(C#N)cc3c2=O)cc1F [Example 203, 3-(3-fluoro-4-methoxyphenyl)-2-(1-methyl-1H-imidazol-2-yl)-8-(6-methylpyridin-3-yl)-4-oxo-3,4-dihydroquinazoline-6-carbonitrile] | 51 to 150 nM | 151 to 500 nM
12 | COc1ccc(-n2c(C3C[C@@H]4CCC[C@@H]4N3)nc3c(-c4ccc(C)nc4)cc(C#N)cc3c2=O)cc1F (stereo partly drawn) [Example 140, 3-(3-fluoro-4-methoxyphenyl)-8-(6-methylpyridin-3-yl)-2-((3aS,6aS)-octahydrocyclopenta[b]pyrrol-2-yl)-4-oxo-3,4-dihydroquinazoline-6-carbonitrile] | 1 to 50 nM | 1 to 50 nM
